Measured values: patent US20050277586A1, “Peptide chemically modified with polyethylene glycol” (priority 2002, published 2005)

Experiments:
[1] = biological target: phosphatidyl serine (binding of human Factor VIII); experiment: Affinity for phosphatidyl serine (EIA, inhibition of human Factor VIII binding); conditions: in the presence of 5% BSA, human Factor VIII 1 μg/mL
Method: The specific affinity of the peptide for phosphatidyl serine was evaluated by measuring activity of the peptide for inhibiting the binding of the human Factor VIII to phosphatidyl serine by using human Factor VIII which is known to bind to phosphatidyl serine but not to phosphatidyl choline in the presence of serum albumin. To be more specific, 100 μL of ethanol solution containing 10 μg/mL of phospholipids at a phosphatidyl serine (manufactured by SIGMA): phosphatidyl choline (manufactured by SIGMA) ratio of 3:7 was added to the wells of a 96 well plate (Immulon I, manufactured by Dynatech), and exsiccated by using a centrifugal evaporator (EC-95C, manufactured by Sakuma Seisakusho) at 40° C. for 40 minutes. 200 μL each of TBS (10 mM Tris-HCl (pH 7.4) containing 1% bovine serum albumin (BSA Fraction V, hereinafter referred to as BSA, manufactured by Seikagaku Corporation) and 0.9% (W/V) NaCl solution were added to each well, and the wells were blocked by allowing the plate to stand at 37° C. for 2.5 hours. After washing the plate with water, 100 μL of TBS solution supplemented with 5% BSA mixed with human Factor VIII (manufactured by American Diagnostica) at a final concentration 1 μg/mL and the peptide of predetermined dose prepared in Example 1 was added to each well, and the reaction was allowed to take place at 4° C. for 24 hours.
After the completion of the reaction, the human Factor VIII that became bound to the phosphatidyl serine was measured by enzyme immunoassay (EIA) in accordance with the general procedure described in a book (“Enzyme Immunoassay (3rd ed.)”, Eiji Ishikawa et al., Igaku-Shoin, 1987). To be more specific, the measurement was conducted by using anti-human Factor VIII mouse monoclonal antibody (ESH8, manufactured by American Diagnostica) for the primary antibody, horseradish peroxidase-labeled anti-mouse IgG antibody (P0260, manufactured by Daco) for the secondary antibody, and tetramethylbenzidine for the chromogenic substrate, and measuring the absorption at a wavelength of 450 nm by using a reference wavelength of 630 nm on a spectrophotometer (NJ-2100, manufactured by Intermed).
Intensity of the affinity of the peptide for the phosphatidyl serine was evaluated by using the value obtained by subtracting the absorption of the well having no human Factor VIII added thereto from the absorption of the well having only the human Factor VIII added thereto as the control value (100%), and designating the peptide concentration at which the value 0.5 was obtained when the value obtained by subtracting the absorption of the well having only the peptide added thereto from the absorption of the well having a mixture of the human Factor VIII and the peptide added thereto were divided by the control value as the IC50 value, and evaluating the intensity to be ++ when the IC50 value was up to 1 μM, and + when the intensity was more than 1 μM but not more than 10 μM. It is to be noted that the specific affinity was evaluated to be none when the intensity was 10 μM or more.

nuclease Bal 31 = experiment: Nuclease resistance-imparting ability for natural (P=O form) oligonucleotide; format: biochemical; conditions: 2 U Bal 31, 30° C., 60 minutes
Method: Nuclease resistance-imparting ability for natural (P═O form) oligonucleotide was evaluated. To be more specific, 2 U of nuclease Bal 31 (manufactured by Takara Shuzo) was added to 20 mM Tris-HCl buffer (pH=8) containing 50 μM of the peptide of SEQ ID NO: 1 prepared in Example 1, 3 μM of P═O form oligonucleotide prepared in Example 6, 150 mM NaCl, 12 mM MgCl2, and 12 mM CaC12, and the reaction was allowed to take place at 30° C. for 60 minutes. Next, the oligonucleotide which escaped from the decomposition was extracted with phenol/chloroform, and subjected to electrophoresis by the procedure described in Example 8 to stain the oligonucleotide.

Sequence: TRYLRIHPRSWVHQIALRLRYLRIHPRSWVHQIALRS [SEQ ID NO: 1]
- IC50 [1]: < 1000 nM
- Nuclease resistance-imparting ability for natural (P=O form) oligonucleotide (nuclease Bal 31): exhibit nuclease resistance-imparting ability
